Laboratory results taken from patent publication US20100298141A1, “SUBSTITUTED PYRIDINE N-OXIDE HERBICIDES” (E. I. DU PONT DE NEMOURS AND COMPANY, priority 2007, published 2010).

Columns and labels:
[1] = system: barnyardgrass; experiment: Test A pre-/postemergence greenhouse test; format: in vivo, Echinochloa crus-galli; conditions: for Barnyardgrass plant response rating: 0 to 100 scale; for Plant response rating, Barnyardgrass: 0 to 100 scale where 0 is no effect and 100 is complete control
Outline: (§1)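 Each test compound, dissolved in a non-phytotoxic solvent mixture with surfactant, was sprayed directly onto seeded soil (loam/sand blend) and, at the same moment, onto seedlings carrying one to two leaves. Around ten greenhouse days later, plants were rated visually for injury relative to untreated controls.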

[2] = system: crabgrass; experiment: Test A pre-/postemergence greenhouse test; format: in vivo, Digitaria sanguinalis; conditions: for Crabgrass, Large plant response rating: 0 to 100 scale; for Plant response rating, Crabgrass, Large: 0 to 100 scale where 0 is no effect and 100 is complete control
Outline: as §1

[3] = system: giant foxtail; experiment: Test A pre-/postemergence greenhouse test; format: in vivo, Setaria faberi; conditions: for Foxtail, Giant plant response rating: 0 to 100 scale; for Plant response rating, Foxtail, Giant: 0 to 100 scale where 0 is no effect and 100 is complete control
Outline: as §1

[4] = system: velvetleaf; experiment: Test A pre-/postemergence greenhouse test; format: in vivo, Abutilon theophrasti; conditions: for Velvetleaf plant response rating: 0 to 100 scale; for Plant response rating, Velvetleaf: 0 to 100 scale where 0 is no effect and 100 is complete control
Outline: as §1

[5] = system: blackgrass; experiment: Test C pre-/postemergence test; format: in vivo, Alopecurus myosuroides; conditions: for Plant response rating (0 to 100), Blackgrass: 250 g ai/ha
Outline: (§2)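 Test chemicals were formulated with surfactant in a non-phytotoxic solvent and sprayed both on freshly planted seeds (preemergence) and on 1- to 4-leaf plants of 2–18 cm (postemergence). Flooded-paddy pots received compound directly into 3 cm of standing water, maintained for the test.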

[6] = system: downy brome; experiment: Test C pre-/postemergence test; format: in vivo, Bromus tectorum; conditions: for Plant response rating (0 to 100), Bromegrass, Downy: 250 g ai/ha
Outline: as §2

[7] = system: green foxtail; experiment: Test C pre-/postemergence test; format: in vivo, Setaria viridis; conditions: for Plant response rating (0 to 100), Foxtail, Green: 250 g ai/ha
Outline: as §2

[8] = system: catchweed bedstraw; experiment: Test C pre-/postemergence test; format: in vivo, Galium aparine; conditions: for Plant response rating (0 to 100), Galium: 250 g ai/ha
Outline: as §2

[9] = system: Surinam grass; experiment: Test C pre-/postemergence test; format: in vivo, Brachiaria decumbens; conditions: for Surinam Grass plant response rating: preemergence, scale 0 (no effect) to 100 (complete control); for Plant response rating (0 to 100), Surinam Grass: Preemergence, 250 g ai/ha
Outline: as §2

[10] = system: woolly cupgrass; experiment: Test C pre-/postemergence test; format: in vivo, Eriochloa villosa; conditions: for Plant response rating (0 to 100), Cupgrass, Woolly: 250 g ai/ha
Outline: as §2

[11] = system: lambsquarters; experiment: Test C pre-/postemergence test; format: in vivo, Chenopodium album; conditions: for Plant response rating (0 to 100), Lambsquarters: 250 g ai/ha
Outline: as §2

[12] = system: pigweed; experiment: Test C pre-/postemergence test; format: in vivo, Amaranthus retroflexus; conditions: for Plant response rating (0 to 100), Pigweed: 250 g ai/ha
Outline: as §2

[13] = system: common ragweed; experiment: Test C pre-/postemergence test; format: in vivo, Ambrosia elation; conditions: for Plant response rating (0 to 100), Ragweed: 250 g ai/ha
Outline: as §2

[14] = system: soybean; experiment: Test C pre-/postemergence test; format: in vivo, Glycine max; conditions: for Plant response rating (0 to 100), Soybean: 250 g ai/ha
Outline: as §2

[15] = system: velvetleaf; experiment: Test C pre-/postemergence test; format: in vivo, Abutilon theophrasti; conditions: for Velvetleaf plant response rating: preemergence, scale 0 (no effect) to 100 (complete control); for Plant response rating (0 to 100), Velvetleaf: Preemergence, 250 g ai/ha
Outline: as §2

[16] = system: duck salad; experiment: Test C flooded paddy test; format: in vivo, Heteranthera limosa; conditions: Flood
Outline: (§3)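 Greenhouse pots flooded to 3 cm above soil at time of treatment received compound via the water, which stayed at that level.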

[17] = system: barnyardgrass; experiment: Test C flooded paddy test; format: in vivo, Echinochloa crus-galli; conditions: Flood
Outline: as §3

[18] = Postemergence, 125 g ai/ha, 0 is no effect, 100 is complete control
[19] = Postemergence, 500 g ai/ha, 0 is no effect, 100 is complete control
[20] = Preemergence, 125 g ai/ha, 0 no effect, 100 complete control
[21] = 31 g ai/ha, Preemergence, scale 0 to 100
[22] = 62 g ai/ha, preemergence, scale 0 (no effect) to 100 (complete control)
[23] = preemergence, 125 g ai/ha, scale 0 (no effect) to 100 (complete control)
[24] = 31 g ai/ha, scale 0 to 100 (0 no effect, 100 complete control)
[25] = 62 g ai/ha, scale 0 to 100, 0 no effect, 100 complete control, 13 to 15 days
[26] = 125 g ai/ha, scale 0 to 100, 0 no effect, 100 complete control, 13 to 15 days
[27] = 250 g ai/ha, scale 0 to 100 (0 no effect, 100 complete control)

Cc1cc[n+]([O-])c(S(=O)(=O)C(C)c2c(C(F)(F)F)nn(C)c2OC(F)F)c1 (stereo not shown) [Compound 11]
95: Surinam Grass plant response rating ([9]; 125 g ai/ha) | Ragweed plant response rating [13, 23]
100: Plant response rating, Barnyardgrass ([1]; Preemergence, 500 g ai/ha) | Plant response rating, Crabgrass, Large ([2]; Preemergence, 500 g ai/ha) | Foxtail, Giant plant response rating [3, 20] | Plant response rating, Foxtail, Giant ([3]; Preemergence, 500 g ai/ha) | Foxtail, Green plant response rating [7, 22] | Plant response rating (0 to 100), Foxtail, Green ([7]; Preemergence) | Foxtail, Green plant response rating [7, 23] | Galium plant response rating [8, 22] | Plant response rating (0 to 100), Galium ([8]; Preemergence) | Galium plant response rating [8, 23] | Plant response rating (0 to 100), Surinam Grass [9] | Plant response rating (0 to 100), Cupgrass, Woolly ([10]; Preemergence) | Lambsquarters plant response rating [11, 21] | Lambsquarters plant response rating [11, 22] | Plant response rating (0 to 100), Lambsquarters ([11]; Preemergence) | Lambsquarters plant response rating [11, 23] | Pigweed plant response rating [12, 21] | Pigweed plant response rating [12, 22] | Plant response rating (0 to 100), Pigweed ([12]; Preemergence) | Pigweed plant response rating [12, 23] | Plant response rating (0 to 100), Ragweed ([13]; Preemergence) | Plant response rating (0 to 100), Soybean ([14]; Preemergence) | Plant response rating (0 to 100), Velvetleaf [15] | Velvetleaf plant response rating ([15]; 125 g ai/ha)
85: Cupgrass, Woolly plant response rating [10, 23] | Plant response rating, Ducksalad [16, 26] | Plant response rating, Barnyardgrass [17, 27]
65: Plant response rating, Ducksalad [16, 25]
70: Barnyardgrass plant response rating [1, 18] | Crabgrass, Large plant response rating [2, 18] | Foxtail, Giant plant response rating [3, 18] | Velvetleaf plant response rating ([15]; 62 g ai/ha) | Plant response rating, Barnyardgrass [17, 25]
75: Ragweed plant response rating [13, 22] | Plant response rating, Barnyardgrass [17, 26]
10: Bromegrass, Downy plant response rating [6, 22]
60: Velvetleaf plant response rating [4, 19] | Plant response rating (0 to 100), Bromegrass, Downy ([6]; Preemergence) | Cupgrass, Woolly plant response rating [10, 21]
55: Ragweed plant response rating [13, 21]
50: Bromegrass, Downy plant response rating [6, 23] | Galium plant response rating [8, 21]
20: Soybean plant response rating [14, 23]
80: Barnyardgrass plant response rating [1, 19] | Crabgrass, Large plant response rating [2, 19] | Foxtail, Giant plant response rating [3, 19] | Velvetleaf plant response rating [4, 20] | Foxtail, Green plant response rating [7, 21] | Surinam Grass plant response rating ([9]; 62 g ai/ha) | Cupgrass, Woolly plant response rating [10, 22]
0: Blackgrass plant response rating [5, 21] | Blackgrass plant response rating [5, 22] | Bromegrass, Downy plant response rating [6, 21] | Soybean plant response rating [14, 21] | Soybean plant response rating [14, 22] | Plant response rating, Ducksalad [16, 24] | Plant response rating, Barnyardgrass [17, 24]
40: Velvetleaf plant response rating [4, 18]
90: Barnyardgrass plant response rating [1, 20] | Crabgrass, Large plant response rating [2, 20] | Plant response rating, Velvetleaf ([4]; Preemergence, 500 g ai/ha) | Plant response rating (0 to 100), Blackgrass ([5]; Preemergence) | Blackgrass plant response rating [5, 23] | Plant response rating, Ducksalad [16, 27]

Cn1nc(C(F)(F)F)c(C(Cl)S(=O)(=O)c2cccc[n+]2[O-])c1Cl (stereo not shown) [Compound 12]
85: Plant response rating, Barnyardgrass [17, 27]
60: Barnyardgrass plant response rating [1, 19] | Crabgrass, Large plant response rating [2, 18]
10: Plant response rating (0 to 100), Soybean ([14]; Preemergence)
20: Plant response rating (0 to 100), Ragweed ([13]; Preemergence)
95: Plant response rating, Ducksalad [16, 25]
90: Barnyardgrass plant response rating [1, 20] | Plant response rating, Barnyardgrass ([1]; Preemergence, 500 g ai/ha)
0: Velvetleaf plant response rating [4, 18] | Velvetleaf plant response rating [4, 19] | Velvetleaf plant response rating [4, 20] | Plant response rating, Velvetleaf ([4]; Preemergence, 500 g ai/ha) | Blackgrass plant response rating [5, 21] | Bromegrass, Downy plant response rating [6, 21] | Bromegrass, Downy plant response rating [6, 22] | Plant response rating (0 to 100), Bromegrass, Downy ([6]; Preemergence) | Bromegrass, Downy plant response rating [6, 23] | Surinam Grass plant response rating ([9]; 62 g ai/ha) | Lambsquarters plant response rating [11, 21] | Ragweed plant response rating [13, 21] | Ragweed plant response rating [13, 22] | Soybean plant response rating [14, 21] | Soybean plant response rating [14, 22] | Soybean plant response rating [14, 23] | Velvetleaf plant response rating ([15]; 62 g ai/ha) | Plant response rating (0 to 100), Velvetleaf [15] | Velvetleaf plant response rating ([15]; 125 g ai/ha) | Plant response rating, Barnyardgrass [17, 24]
98: Blackgrass plant response rating [5, 22] | Blackgrass plant response rating [5, 23]
40: Plant response rating (0 to 100), Surinam Grass [9] | Plant response rating, Ducksalad [16, 24]
100: Plant response rating, Crabgrass, Large ([2]; Preemergence, 500 g ai/ha) | Plant response rating, Foxtail, Giant ([3]; Preemergence, 500 g ai/ha) | Plant response rating (0 to 100), Blackgrass ([5]; Preemergence) | Foxtail, Green plant response rating [7, 21] | Plant response rating (0 to 100), Foxtail, Green ([7]; Preemergence) | Foxtail, Green plant response rating [7, 23] | Galium plant response rating [8, 22] | Plant response rating (0 to 100), Galium ([8]; Preemergence) | Galium plant response rating [8, 23] | Cupgrass, Woolly plant response rating [10, 22] | Plant response rating (0 to 100), Cupgrass, Woolly ([10]; Preemergence) | Cupgrass, Woolly plant response rating [10, 23] | Lambsquarters plant response rating [11, 22] | Plant response rating (0 to 100), Lambsquarters ([11]; Preemergence) | Lambsquarters plant response rating [11, 23] | Pigweed plant response rating [12, 21] | Pigweed plant response rating [12, 22] | Plant response rating (0 to 100), Pigweed ([12]; Preemergence) | Pigweed plant response rating [12, 23] | Plant response rating, Ducksalad [16, 26] | Plant response rating, Ducksalad [16, 27]
70: Crabgrass, Large plant response rating [2, 19] | Crabgrass, Large plant response rating [2, 20] | Foxtail, Giant plant response rating [3, 19]
80: Foxtail, Giant plant response rating [3, 20] | Galium plant response rating [8, 21] | Cupgrass, Woolly plant response rating [10, 21] | Plant response rating, Barnyardgrass [17, 26]
30: Surinam Grass plant response rating ([9]; 125 g ai/ha)
50: Barnyardgrass plant response rating [1, 18] | Foxtail, Giant plant response rating [3, 18] | Plant response rating, Barnyardgrass [17, 25]
